Laboratory results published in US20110173709A1, “ECTOPIC, ORTHOTOPIC MODEL FOR REVASCULARIZATION AND TUMOR ASSESSMENT” (Sidney Kimmel Cancer Center, priority 2007, published 2011).

Test system: N202-H2BGFP tumor spheroids
Test: Doxorubicin treatment of N202-H2BGFP tumor spheroids in dorsal skinfold window chamber
Type: in vivo, mouse
Details: single dose 1 or 5 mg/kg via the tail vein after re-vascularization, nu/nu nude mice

With `COc1cccc2c1C(=O)c1c(O)c3c(c(O)c1C2=O)C[C@@](O)(C(=O)CO)C[C@@H]3O[C@H]1C[C@H](N)[C@H](O)[C@H](C)O1` [Doxorubicin] the “effect on the growing tumor implanted on the engrafted mammary fat pad” value (orthotopic engrafted mammary fat pad, over a 2 week period, FIG. 6B) was “little to no effect” and the “effect on the growing tumor implanted on the skinfold” value (tumor implanted on skinfold, FIG. 6A) was “essentially tumor stasis”.
